Laboratory results from patent EP0365763A1, “Antiproliferative cyclic compounds” (priority 1988, dated 1990).
Read-outs that look alike come from different tables or passages of the source.

Assays:
[1] = tested on: L1210 murine leukemia (ATCC CCL 219); assay: Cellular growth in culture, MTT-tetrazolium reduction assay; assay type: cell-based; settings: for IC50: Mus musculus, L1210, 72 h, read-out: IC50 FOR CELLS IN CULTURE L1210
Method: (§1) Cellular growth in the presence of the compounds in question was assessed using two cell lines, the Ll2l0 murine leukemia (ATCC CCL 219) and CCRF-CEM, a human lymphoblastic leukemia line of T-cell origin (ATCC CCL 119). Both lines were maintained in RPMI 1640 medium containing 5% heat-inactivated fetal bovine serum without antibiotics.
(§2) IC₅₀ values were determined in 150 microliter microcultures each containing 1500 (Ll2l0) or 4000 (CCRF-CEM) cells established in 96 well plates in growth medium supplemented with 50 IU/ml penicillin and 50 mcg/ml streptomycin. Growth was measured over 3 days (Ll2l0) or 5 days (CCRF-CEM) of continuous exposure to varying concentrations of each test compound added 4 h. after initial cell plating by the MTT-tetrazolium reduction assay of Mosmann (T. J. Immunol. Meth. 65, 55-63 (1983)) modified according to Alley et al. (Cancer Res. 48 589-601 (1988)). Water insoluble derivatives were dissolved in DMSO and diluted to a final concentration of 0.5% solvent in cell cultures.

[2] = tested on: CCRF-CEM, a human lymphoblastic leukemia line of T-cell origin (ATCC CCL 119); assay: as above; assay type: cell-based; settings: for IC50: Homo sapiens, CCRF-CEM, 120 h, read-out: IC50 FOR CELLS IN CULTURE CCRF-CEM; for inhibition at this concentration, CCRF-CEM: at the highest concentration tested, 5 days
Method: as §1, §2

[3] = biological target: E.coli thymidylate synthase (TS) (Escherichia coli, UniProt P0A884); assay: Thymidylate synthase inhibition constants against 5,10-methylene-tetrahydrofolate; assay type: biochemical
E.coli thymidylate synthase (TS), sequence (P0A884 whole entry): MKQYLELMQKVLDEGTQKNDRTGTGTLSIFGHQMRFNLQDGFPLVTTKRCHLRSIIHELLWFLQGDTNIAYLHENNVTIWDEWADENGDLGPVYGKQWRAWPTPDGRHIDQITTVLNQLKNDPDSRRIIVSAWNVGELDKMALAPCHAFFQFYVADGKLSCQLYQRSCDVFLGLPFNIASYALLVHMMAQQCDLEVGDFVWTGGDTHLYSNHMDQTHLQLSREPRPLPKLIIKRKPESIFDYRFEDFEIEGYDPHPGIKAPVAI
Method: (§3) Determination of Inhibition Constants Against 5,10-Methylene-Tetrahydrofolate
(§4) Thymidylate synthase inhibition constants K₁ have been determined by the following method. All assays were run at 25°C and initiated by the addition of thymidylate synthase ("TS"). […] All reaction mixtures contained 50 mM Tris at pH 7.8 (the final pH of the reaction was 7.6), 10 mM DTT (dithiothreitol), 1 mM EDTA (ethylenediaminetetraacetic acid), 25 mM MgCl₂, 15 mM H₂CO (formaldehyde) and 25 microM dUMP. When human or Leishmania TS was assayed, 100 micrograms/ml of BSA (bovine serum albumin) was present in the reactions. […] Charcoal was used to remove unreacted dUMP from the tritium release reaction mixtures and the resultant water was counted to determine the extent of reaction.

[4] = biological target: Human thymidylate synthase (TS) (Homo sapiens, UniProt P04818); assay: as above; assay type: biochemical
Human thymidylate synthase (TS), sequence (P04818 whole entry): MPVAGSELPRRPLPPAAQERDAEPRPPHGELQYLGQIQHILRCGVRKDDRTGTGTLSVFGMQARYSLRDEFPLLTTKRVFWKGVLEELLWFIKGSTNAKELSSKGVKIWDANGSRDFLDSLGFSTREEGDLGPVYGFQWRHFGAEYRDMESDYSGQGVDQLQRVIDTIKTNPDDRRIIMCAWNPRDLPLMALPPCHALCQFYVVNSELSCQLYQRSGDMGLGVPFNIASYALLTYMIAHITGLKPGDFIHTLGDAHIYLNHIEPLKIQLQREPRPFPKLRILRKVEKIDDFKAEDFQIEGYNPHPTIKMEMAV
Method: as §3
Thymidylate synthase inhibition constants K₁ have been determined by the following method. All assays were run at 25°C and initiated by the addition of thymidylate synthase ("TS"). […] All reaction mixtures contained 50 mM Tris at pH 7.8 (the final pH of the reaction was 7.6), 10 mM DTT (dithiothreitol), 1 mM EDTA (ethylenediaminetetraacetic acid), 25 mM MgCl₂, 15 mM H₂CO (formaldehyde) and 25 microM dUMP. When human or Leishmania TS was assayed, 100 micrograms/ml of BSA (bovine serum albumin) was present in the reactions.

[5] = biological target: L. major thymidylate synthase (TS) (Leishmania major, UniProt P07382); assay: biochemical
L. major thymidylate synthase (TS), sequence (P07382 whole entry): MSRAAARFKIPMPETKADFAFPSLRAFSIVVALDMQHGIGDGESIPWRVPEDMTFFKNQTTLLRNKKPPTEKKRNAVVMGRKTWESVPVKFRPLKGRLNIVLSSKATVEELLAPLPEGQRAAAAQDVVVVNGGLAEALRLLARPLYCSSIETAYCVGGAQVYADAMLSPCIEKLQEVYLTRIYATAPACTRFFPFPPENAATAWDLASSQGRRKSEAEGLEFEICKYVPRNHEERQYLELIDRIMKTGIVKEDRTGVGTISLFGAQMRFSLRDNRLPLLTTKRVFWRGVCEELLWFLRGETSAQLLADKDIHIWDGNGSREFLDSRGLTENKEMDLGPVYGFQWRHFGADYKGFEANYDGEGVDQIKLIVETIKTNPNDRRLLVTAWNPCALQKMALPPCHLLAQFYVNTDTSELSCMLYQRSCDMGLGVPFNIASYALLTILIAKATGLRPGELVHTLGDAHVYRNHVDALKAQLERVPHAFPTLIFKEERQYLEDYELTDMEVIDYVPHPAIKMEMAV
Method: as §3, §4

[6] = biological target: C.albicans thymidylate synthase (TS) (Candida albicans, UniProt P12461); assay: Thymidylate synthase inhibition constants against 5,10-methylene-tetrahydrofolate; assay type: biochemical
C.albicans thymidylate synthase (TS), sequence (P12461 whole entry): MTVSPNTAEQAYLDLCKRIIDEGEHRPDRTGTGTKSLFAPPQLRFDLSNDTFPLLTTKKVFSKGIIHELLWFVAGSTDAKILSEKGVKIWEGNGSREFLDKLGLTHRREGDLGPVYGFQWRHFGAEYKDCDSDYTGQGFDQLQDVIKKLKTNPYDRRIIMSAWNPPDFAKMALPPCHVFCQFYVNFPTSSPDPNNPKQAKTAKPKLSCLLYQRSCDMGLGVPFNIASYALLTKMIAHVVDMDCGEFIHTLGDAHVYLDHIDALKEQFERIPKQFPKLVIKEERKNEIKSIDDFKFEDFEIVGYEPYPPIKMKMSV
Method: as §3, §4

murine L1210 TS = biological target: T1, murine L1210 TS (Mus musculus, UniProt P07607); settings: relative to 10-propargyl-5,8-dideazafolic acid; cited from earlier work
T1 construct: host or cells: L1210
T1 sequence (P07607 whole entry): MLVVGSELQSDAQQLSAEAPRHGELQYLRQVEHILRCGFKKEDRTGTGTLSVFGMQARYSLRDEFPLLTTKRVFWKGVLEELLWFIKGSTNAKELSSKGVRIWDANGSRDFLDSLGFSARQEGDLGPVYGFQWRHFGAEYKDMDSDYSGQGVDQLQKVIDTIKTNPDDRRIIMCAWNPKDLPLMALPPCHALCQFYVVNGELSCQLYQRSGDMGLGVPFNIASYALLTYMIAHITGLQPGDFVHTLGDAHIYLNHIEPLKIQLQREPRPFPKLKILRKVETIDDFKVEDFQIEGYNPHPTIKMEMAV

[7] = 3 days of continuous exposure, MTT
[8] = 5 days of continuous exposure, MTT
[9] = 25°C, pH 7.6, 25 microM dUMP, THF 5 to 150 microM, 100 micrograms/ml BSA, read-out: K1TS Human
[10] = 25°C, pH 7.6, 25 microM dUMP, THF 5 to 150 microM, read-out: K1TS C.albicans

Compound | IC50 [1, 7] | IC50 [2, 8] | Ki [3] | Ki [4, 9] | further results
C#CCN(Cc1ccc2nc(C)[nH]c(=O)c2c1)c1ccc(C#N)c(C(F)(F)F)c1 [3-CF3,4-CN] | > 2.8 µM | > 2.8 µM | 0.036 ± 0.007 µM |  | inhibition at this concentration, L1210 ([1]; at the highest concentration tested, printed in the same cell or footnote, 3 days): 15%; inhibition at this concentration, CCRF-CEM [2]: no inhibition; Ki [4]: 0.081 ± 0.057 µM; Ki [5]: 0.03 µM
C#CCN(Cc1ccc2nc(C)nc(O)c2c1)c1ccc([N+](=O)[O-])c(C(F)(F)F)c1 [3-CF3,4-NO2] | > 5 µM |  | 0.078 ± 0.076 µM | 0.2 ± 0.25 µM | 
C#CCN(Cc1ccc2nc(C)nc(O)c2c1)c1ccc(S(N)(=O)=O)c(C(F)(F)F)c1 [3-CF3,4-SO2NH2] |  |  | 0.19 ± 0.12 µM | 0.58 ± 0.74 µM | Ki [6, 10]: 1.9 ± 0.6 µM
C#CCN(Cc1ccc2nc(C)nc(O)c2c1)c1ccc(S(=O)(=O)NCC(=O)O)c(C(F)(F)F)c1 [3-CF3,4-SO2NHCH2COOH] |  |  | 0.015 ± 0.003 µM |  | Ki ([5]; 25°C, pH 7.6, 25 microM dUMP, THF 5 to 150 microM, 100 micrograms/ml BSA, read-out: K1TS L. major): 0.013 µM
C#CCN(Cc1ccc2nc(C)nc(O)c2c1)c1cccc(C(C)O)c1 (stereo not shown) [3-CH(OH)CH3] | > 50 µM | > 50 µM | 11.4 ± 9.8 µM | 9.6 ± 6.9 µM | 
C#CCN(Cc1ccc2nc(C)nc(O)c2c1)c1ccc(C#N)c(Cl)c1 [3-Cl, 4-CN] | 4.5 µM | > 6.8 µM | 0.091 ± 0.052 µM |  | Ki [6]: 0.28 ± 0.19 µM; Ki [4]: 0.087 ± 0.001 µM
C#CCN(Cc1ccc2nc(C)nc(O)c2c1)c1cccc(C#C)c1 [3-C≡CH] | > 2.4 µM | > 2.4 µM | 32.9 ± 14.1 µM |  | 
C#CCN(Cc1ccc2nc(C)nc(O)c2c1)c1cccc(Br)c1 [Compound 3-Br] | > 5.5 µM | > 5.5 µM | 5.5 ± 1.3 µM | 3.6 ± 2.6 µM | 
C#CCN(Cc1ccc2nc(C)nc(O)c2c1)c1cccc(CC)c1 [Compound 3-C2H5] | > 5 µM | > 5 µM | 24.5 ± 15.7 µM | 23.9 ± 20.8 µM | 
C#CCN(Cc1ccc2nc(C)[nH]c(=O)c2c1)c1cccc(C(F)(F)F)c1 [Compound 3-CF3] | > 4.3 µM | > 4.3 µM |  |  | 
C#CCN(Cc1ccc2nc(C)nc(O)c2c1)c1cccc(CO)c1 [Compound 3-CH2OH] | 48 µM | > 55 µM | 6.7 ± 5.4 µM | 1.2 ± 0.4 µM | 
C#CCN(Cc1ccc2nc(C)nc(O)c2c1)c1cccc(C)c1 [Compound 3-CH3] | > 5 µM | > 5 µM | 16.3 ± 9.8 µM | 10.2 ± 10.2 µM | Ki [6, 10]: 7.7 µM
C#CCN(Cc1ccc2nc(C)nc(O)c2c1)c1cccc(I)c1 [Compound 3-I] | > 5.3 µM | > 5.3 µM | 49 ± 42.3 µM | 4.7 ± 3.7 µM | Ki [6, 10]: 15.5 ± 5.5 µM
C#CCN(Cc1ccc2nc(C)nc(O)c2c1)c1ccc(C#N)cc1 [Compound 4-CN] | > 5 µM | > 5 µM | 0.52 ± 0.46 µM | 0.54 ± 0.74 µM | 
C#CCN(Cc1ccc2nc(C)nc(O)c2c1)c1ccc(C(=O)c2ccccc2)cc1 [Compound 4-COPh] | 6.8 µM | > 8.5 µM | 0.5 ± 0.11 µM | 0.7 ± 0.19 µM | 
C#CCN(Cc1ccc2nc(C)nc(O)c2c1)c1ccc(Cl)cc1 [Compound 4-Cl] | > 4 µM | > 4 µM | 5.9 ± 1.8 µM | 5.4 µM | Ki [6, 10]: 10.6 ± 4.7 µM
C#CCN(Cc1ccc2nc(C)nc(O)c2c1)c1ccc([N+](=O)[O-])cc1 [Compound 4-NO2] | 4.5 µM | > 4.8 µM | 0.12 ± 0.07 µM | 0.25 ± 0.21 µM | Ki [6, 10]: 1.5 ± 1.1 µM
C#CCN(Cc1ccc2nc(C)[nH]c(=O)c2c1)c1ccc(S(N)(=O)=O)cc1 [Compound 4-SO2NH2] | 20 µM | > 25 µM | 0.25 ± 0.15 µM | 0.16 ± 0.12 µM | inhibition at this concentration, CCRF-CEM [2]: no inhibition; Ki [6, 10]: 1 µM
C#CCN(Cc1ccc2nc(C)[nH]c(=O)c2c1)c1ccc(S(=O)(=O)c2ccccc2)cc1 [Compound 4-SO2Ph] |  |  |  |  | IC50 [1]: 1 µM; IC50 [2]: 2.5 µM
C#CCN(Cc1ccc2nc(C)[nH]c(=O)c2c1)c1ccc(S(=O)(=O)C(F)(F)F)cc1 [Compound A, N-((3,4-Dihydro-2-methyl-4-oxo-6-quinazolinyl)methyl)-N-(prop-2-ynyl)-4-trifluoromethanesulfonylaniline] | > 2.75 µM | > 2.75 µM | 0.015 µM | 0.075 ± 0.035 µM | inhibition at this concentration, CCRF-CEM [2]: no inhibition
C#CCN(Cc1ccc2nc(C)[nH]c(=O)c2c1)c1ccc(S(=O)(=O)c2ccccc2)c(C(F)(F)F)c1 [Compound B, N-((3,4-Dihydro-2-methyl-4-oxo-6-quinazolinyl)methyl)-4-(phenylsulfonyl)-N-(prop-2-ynyl)-3-(trifluoromethyl)aniline] | 3 µM | 6 µM |  |  | 
C#CCN(Cc1ccc2nc(-c3ccccc3)[nH]c(=O)c2c1)c1ccc(Cl)cc1 [Compound C] |  |  | 42.6 ± 23.1 µM |  | 
C#CCN(Cc1ccc2nc(C)nc(S)c2c1)c1cccc(C(F)(F)F)c1 [Compound D, N-((3,4-dihydro-2-methyl-4-thio-6-quinazolinyl)methyl)-N-(prop-2-ynyl)-3-trifluoromethylaniline] |  |  | 3.3 ± 1.4 µM | 17.5 ± 11 µM | 
C#CCN(Cc1cccc2c(NC=O)coc12)c1ccc([N+](=O)[O-])cc1 [Compound E, N-((3-Formylamino-7-benzofuranyl)methyl)-N-(prop-2-ynyl)-4-nitroaniline] |  |  | 70.9 ± 1.8 µM |  | 
C#CCN(Cc1ccc2nc(C)[nH]c(=O)c2c1)c1ccccc1 [—] | > 10 µM | > 10 µM |  |  | 
tetraglutamate of 10-propargyl-5,8-dideazafolic acid |  |  |  |  | binds more tightly to murine L1210 TS than the monoglutamate parent compound (murine L1210 TS): 119 fold
